Here are results for six compounds from PMC4601567 (Steroids, 2014).

This test has as its target T1, full-length recombinant rat vitamin D receptor (VDR) (Rattus norvegicus, UniProt P13053).
T1 sequence (P13053 1-423): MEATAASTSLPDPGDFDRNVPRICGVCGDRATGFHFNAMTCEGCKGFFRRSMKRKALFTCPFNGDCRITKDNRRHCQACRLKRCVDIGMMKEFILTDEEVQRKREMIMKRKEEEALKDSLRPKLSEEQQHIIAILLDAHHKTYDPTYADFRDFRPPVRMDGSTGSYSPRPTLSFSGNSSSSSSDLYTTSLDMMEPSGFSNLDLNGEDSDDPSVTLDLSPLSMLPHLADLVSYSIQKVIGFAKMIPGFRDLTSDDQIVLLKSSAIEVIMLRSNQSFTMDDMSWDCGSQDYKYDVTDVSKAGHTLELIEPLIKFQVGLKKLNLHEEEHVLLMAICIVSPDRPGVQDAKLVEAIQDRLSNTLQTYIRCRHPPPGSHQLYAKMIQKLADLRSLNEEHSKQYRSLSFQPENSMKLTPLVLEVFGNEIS
The test is described as follows: competitive radioligand displacement. The test is classed as binding.

Broadly, the Ki is the dissociation constant of the complex between target and ligand, obtained from inhibition or displacement. Regarding `C=C1[C@H](O)CC(=C/C=C2\CCC[C@]3(C)[C@@H]([C@@H](C)/C=C/C[C@@H](C)O)CC[C@@H]23)C[C@H]1O` [9a, (20S,25R)-2-Methylene-19,26-dinor-22-(E)-ene-1α,25-dihydroxyvitamin D3], the Ki amounted to 0.08 nM. With `C=C1[C@H](O)CC(=C/C=C2\CCC[C@]3(C)[C@@H]([C@H](C)/C=C/C[C@@H](C)O)CC[C@@H]23)C[C@H]1O` [8a, (20R,25R)-2-Methylene-19,26-dinor-22-(E)-ene-1α,25-dihydroxyvitamin D3], the Ki was determined as 0.09 nM.

In the case of `C=C1[C@H](O)CC(=C/C=C2\CCC[C@]3(C)[C@@H]([C@H](C)/C=C/C[C@H](C)O)CC[C@@H]23)C[C@H]1O` [8b, (20R,25S)-2-Methylene-19,26-dinor-22-(E)-ene-1α,25-dihydroxyvitamin D3], the Ki is 0.3 nM. In the case of `C=C1[C@H](O)CC(=C/C=C2\CCC[C@]3(C)[C@@H]([C@H](C)/C=C/CC(C)(C)O)CC[C@@H]23)C[C@H]1O` [compound 6, 2-Methylene-19-nor-22(E)-ene-1α,25-dihydroxyvitamin D3], the Ki is 0.06 nM. For the compound `C=C1[C@H](O)CC(=C/C=C2\CCC[C@]3(C)[C@@H]([C@@H](C)/C=C/C[C@H](C)O)CC[C@@H]23)C[C@H]1O` [9b, (20S,25S)-2-Methylene-19,26-dinor-22-(E)-ene-1α,25-dihydroxyvitamin D3], the Ki worked out at 0.2 nM. `C[C@H](/C=C/[C@H](C)C(C)(C)O)[C@H]1CC[C@H]2/C(=C/C=C3C[C@@H](O)C[C@H](O)C3)CCC[C@]12C` [compound 2, 19-Nor-1α,25-dihydroxyvitaminD2 (Zemplar)]: the Ki was found to be 0.1 nM.
